Publication PMC10846223, “Substrate specificity and ecological significance of PstS homologs in phosphorus uptake in marine Synechococcus sp. WH8102” (Microbiology Spectrum, 2024)

What was measured:
Assay in all cases: biochemical
PstS2 = molecular target: T1, PstS2 (Parasynechococcus marenigrum, UniProt Q7U3C5)
T1 construct: gene SYNW2507
T1 sequence (Q7U3C5 24-336): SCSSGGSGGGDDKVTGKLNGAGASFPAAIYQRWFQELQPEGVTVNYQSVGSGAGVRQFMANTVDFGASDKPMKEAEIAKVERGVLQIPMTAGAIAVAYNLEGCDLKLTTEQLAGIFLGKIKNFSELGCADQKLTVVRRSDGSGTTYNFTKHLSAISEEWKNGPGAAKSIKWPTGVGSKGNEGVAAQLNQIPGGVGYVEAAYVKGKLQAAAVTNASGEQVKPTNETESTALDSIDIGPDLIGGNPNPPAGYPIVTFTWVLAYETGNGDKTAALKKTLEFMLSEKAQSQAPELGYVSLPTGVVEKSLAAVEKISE

PstS1b = molecular target: T2, PstS1b (Parasynechococcus marenigrum, UniProt Q7U592)
T2 construct: gene SYNW1815
T2 sequence (Q7U592 26-325): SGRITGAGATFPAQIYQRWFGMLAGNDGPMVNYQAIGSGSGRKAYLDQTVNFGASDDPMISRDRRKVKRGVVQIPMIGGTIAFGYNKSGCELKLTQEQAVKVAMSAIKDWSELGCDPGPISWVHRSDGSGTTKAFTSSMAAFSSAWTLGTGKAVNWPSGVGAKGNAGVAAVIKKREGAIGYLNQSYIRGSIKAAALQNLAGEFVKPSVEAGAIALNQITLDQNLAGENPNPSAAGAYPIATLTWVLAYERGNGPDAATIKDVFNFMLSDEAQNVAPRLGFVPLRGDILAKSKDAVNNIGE

PstS1a = molecular target: T3, PstS1a (Parasynechococcus marenigrum, UniProt Q7U7G6)
T3 construct: gene SYNW1018
T3 sequence (Q7U7G6 25-324): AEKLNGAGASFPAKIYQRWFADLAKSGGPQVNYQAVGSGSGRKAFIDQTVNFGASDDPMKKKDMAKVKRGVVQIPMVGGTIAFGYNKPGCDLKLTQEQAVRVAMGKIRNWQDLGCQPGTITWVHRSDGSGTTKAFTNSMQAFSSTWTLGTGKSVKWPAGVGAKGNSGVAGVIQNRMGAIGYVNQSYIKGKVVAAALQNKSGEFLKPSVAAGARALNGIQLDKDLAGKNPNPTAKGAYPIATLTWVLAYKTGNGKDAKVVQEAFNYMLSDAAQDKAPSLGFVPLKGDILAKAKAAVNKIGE

O=P(O)(O)O [phosphate]
Kd (PstS2): 4.3 µM
Kd (PstS1b): 0.44 µM
Kd (PstS1a): 3.3 µM
